Data on one compound can be found in patent US12344599B2, “Prodigiosin analogs and methods of use” (Institute For Cancer Research, priority 2016, dated 2025).

One data set deals with HCT116 p53−/− cells. Nature of the data set: qRT-PCR of p53 target gene mRNA, HCT116 p53−/−. Type of data set: cell-based, human. As to conditions: 1 μM. The procedure:
(§1) • 1) Cell lines: HT29, SW480, DLD-1, HCT116, and p53-null HCT116 cells, H1975, MDA-MD-231, U251, FaDu, CAL-27, PANC-1, Aspc-1, and MRC5 were obtained from the ATCC and cultured as recommended. Cells were regularly authenticated by bioluminescence, growth, and morphologic observation. The cells were routinely examined for Mycoplasma and all cell lines underwent STR authentication. • 2) Western blotting: After treatment, protein lysates were collected for Western blot analysis. 15 μg of protein was used for SDS-PAGE. After primary and secondary antibody incubations, the signal was detected by chemiluminescent detection kit, imaged by Syngene (Imgen Technologies). […] The cell viability was assessed by CellTiterGlo bioluminescent cell proliferation assay (Promega), following the manufacturer's protocol. Bioluminescence imaging was measured using the IVIS imager. Percentage of cell viability (mean±SEM) at each dose was calculated against the respective DMSO control. The IC50 values were determined from the sigmoidal dose-response curves using GraphPad Prims4. • 4) Caspase activity assay: Cells were seeded in 96-well plate (1×10^4 cells/well). […] The caspase 3/7 activity was assessed by Caspase-Glo® 3/7 Assay kit (Promega), following the manufacturer's protocol. Bioluminescence imaging was measured using the IVIS imager. […]

Data set [1] deals with ATF4 and CHOP in HCT116 p53−/− cells. As to the kind of experiment: Western blot of ATF4 and CHOP, HCT116 p53−/−. It is filed as cell-based, human. The procedure:
as §1
For orientation: In western blotting, separated proteins are transferred to a membrane and probed.

The next data set has as its system HT29 tumor xenografts. Type of data set: in vivo, mouse. The procedure: One million HT29 were implanted subcutaneously in the flanks in each athymic nude mouse (female, 4-6 weeks old). The mice were divided at random into two groups and treated with the vehicle (10% DMSO, 20% Kollipher EL in PBS) and PG3-Oc (5 mg/kg, 3 times/week) by intraperitoneal injection when the tumor masses reached a size of 5 to 6 mm. Subsequently, tumor volumes were measured with a caliper and calculated using V=0.5×Length×Width^2. Twenty three days after treatment, the mice were euthanized and tumors were excised. H & E staining and Immunohistochemistry (IHC) of paraffin-embedded tumor and tissue sections were performed at the Fox Chase Cancer Center Histopathology Facility.
To evaluate the antitumor effects of PG3-Oc in vivo, a human tumor xenograft model was established by subcutaneous injection of human colon cancer cells into nude mice. After the tumor volume reached approximately 50 mm^3, mice were treated by i.p. injection with vehicle or PG3-Oc at 5 mg/kg 3 times weekly for 2 weeks.

Data set [2] has as its system SW480, DLD1 and p53-null cell line HCT116. Nature of the data set: CellTiter-Glo luminescent cell viability assay (Example 1). It is filed as cell-based, human. The procedure:
SW480, DLD-1, DLD1-p73KD, HCT116, and p53-null HCT116, MRC5 and Wi38 cells were seeded at 5,000 cells per well on 96-well plates. […] Then, cells were mixed with an equal volume of CellTiter-Glo® reagents (Promega), following the manufacturer's protocol, and bioluminescence imaging was measured using the IVIS imager.
A general note: Cellular ATP, detected with luciferase, serves as a proxy for viable cell number.

For another data set, the system named is SW480. As to the kind of experiment: CellTiterGlo cell viability assay, SW480. It is filed as cell-based. As to conditions: Homo sapiens; SW480, colorectal cancer, p53 R273, P309S, 72 hours. The procedure:
as §1

In another data set the test system is HT29 cells. As to the kind of experiment: Flow cytometry sub-G1 (PI staining) analysis. It is filed as cell-based, human. The conditions noted are these: for sub-G1 populations: HT29, co-treatment with PG3-Oc and TRAIL; for sub-G1 population: 1 μM PG3-Oc for 48 hours. The procedure: • 1) Cell lines: HT29, SW480, DLD-1, HCT116, and p53-null HCT116 cells, H1975, MDA-MD-231, U251, FaDu, CAL-27, PANC-1, Aspc-1, and MRC5 were obtained from the ATCC and cultured as recommended. Cells were regularly authenticated by bioluminescence, growth, and morphologic observation. The cells were routinely examined for Mycoplasma and all cell lines underwent STR authentication. • 2) Western blotting: After treatment, protein lysates were collected for Western blot analysis. 15 μg of protein was used for SDS-PAGE. After primary and secondary antibody incubations, the signal was detected by chemiluminescent detection kit, imaged by Syngene (Imgen Technologies). Antibodies for Puma, FLIPL/S and p53 (Santa Cruz Biotechnology), cleaved caspase 8, caspase 9, caspase 3, cleavage PARP, eIF2α, p-eIF2α(Ser51), CHOP, ATF4, DR5, FOXO3a, p-FOXO3a(Ser253), NF-κB p65, p-NF-κB p65(Ser536), c-Jun, p-c-Jun(Ser63), JNK, p-JNK(Thr183/Tyr185) (Cell Signaling Technology), Noxa, p21 (Calbiochem), p73 (Bethyl laboratories Inc), Ran (BD Biosciences), […] (Sigma). • 3) Cell viability assay: Cells were seeded in 96-well plate (6×10^3 cells/well). Cells were treated with different concentrations of compounds or dimethyl sulfoxide (DMSO) control for 72 hours. The cell viability was assessed by CellTiterGlo bioluminescent cell proliferation assay (Promega), following the manufacturer's protocol. Bioluminescence imaging was measured using the IVIS imager. Percentage of cell viability (mean±SEM) at each dose was calculated against the respective DMSO control. The IC50 values were determined from the sigmoidal dose-response curves using GraphPad Prims4. • 4) Caspase activity assay: Cells were seeded in 96-well plate (1×10^4 cells/well). Cells were treated with different concentrations of compounds or DMSO control for 24 hours. The caspase 3/7 activity was assessed by Caspase-Glo® 3/7 Assay kit (Promega), following the manufacturer's protocol. Bioluminescence imaging was measured using the IVIS imager. Caspase activity was normalized to cell numbers and compared to those of DMSO treatment as control in each cell line. Data is reported as mean RLU+SEM (n=3). • 5) Colony formation assays: Five hundred cells were seeded per well on 6-well plates and treated with different concentrations of compounds for 24 hours, then, cells were cultured with drug-free complete medium for 2 weeks with fresh medium changed every 7 days. Cells were fixed with 10% formalin and stained with 0.05% crystal violet at the end of 2 weeks period of cell culture. • 6) Flow cytometry assay: • a) Cell Cycle Analysis: Propidium iodide (PI) staining and flow cytometry were used to determine the degree of cellular apoptosis. Cells were seeded at 3×10^5 cells/well in six-well plates. Cells were treated with PG3-Oc for 48 hours. Cells were harvested, fixed by 70% ethanol, and stained by propidium iodide, then flow cytometry was performed as previously described (Smithen et al., Org. Biomol. Chem., 2013, 11, 62-68). The percentage of hypodiploid cells (sub-G1) was used to quantify dead cells in apoptosis assays. • b) Early apoptosis detection: Cells were seeded at 3×10^5 cells/well in six-well plates. Cells were treated with PG3-Oc for 48 hours. […]
For orientation: A flow cytometer gives signals particle by particle.

In the next data set the test system is p53-target genes. Nature of the data set: Western blotting of p53-target genes (Example 1). It is filed as cell-based, human. The procedure:
After treatment, protein lysates were collected for Western blot analysis. Twenty-five micrograms of protein were used for SDS-PAGE. After primary and secondary antibody incubations, the signal was detected with a chemiluminescent detection kit, followed by autoradiography or Syngen. […] In FIG. 10, p53-null HCT116 cells were treated with P01 and P306, alone or in combination with SiCon or SiTAp73, in various concentrations for 6 hours, and tested for p73 (C.S.), p73 (Bethyl), P63-α, p53, DR5, Puma, P21, and Ran proteins.

[3] abbreviates: nude mice, 5 mg/kg i.p. 3 times weekly.

A word on the IC50: it is the concentration at which inhibition is half-maximal. The low end stands for inhibition by little substance, the high end for a need for much substance.

With `CCCCCCCCOC(=O)CCc1c(C)[nH]c(/C=C2\N=C(c3ccc[nH]3)C=C2OC)c1C` [PG3-Oc, Octyl (Z)-3-(5-((4′-methoxy-1H,5′H-[2,2′-bipyrrol]-5′-ylidene)methyl)-2,4-dimethyl-1H-pyrrol-3-yl)propanoate], the “change of DR5 mRNA” value with HCT116 p53−/− cells is “no significant change”. For the same compound, the “induction of p21 mRNA” value in the data set with HCT116 p53−/− cells (8 and 19 hours post-treatment) is listed as “Over 3 fold”. Besides, the “concentration at which induction of ATF4 and CHOP occurred” value in data set [1] stood at 1.25 µM. Also, the “body weight versus vehicle treatment group” value with HT29 tumor xenografts (mouse, in vivo, ip, 5 mg/kg) was “No significant difference”. Besides, in the data set with HT29 tumor xenografts (setting [3]), the “Ki-67 expression in tumors as compared with the vehicle group” value was “significantly decreased”, the “PUMA in tumors as compared with controls” value was “significantly induced” and the “tumor volume as compared with vehicle-treated mice” value is listed as “significantly reduced”. Moreover, in data set [2] (SW480, DLD1, p53-null HCT116), the “induction of cell death” value is “potently induced cell death”. In addition, in data set [2] (SW480, DLD1, p53-null HCT116, 72 hours), the IC50 values result is “within nanomolar range”. In the data set with SW480, it took 95.3 nM to reach half-maximal inhibition (IC50). In the data set on HT29 cells (siRNA knockdown of DR5), the sub-G1 populations was determined as 29.5%. The sub-G1 populations with HT29 cells (without DR5 knockdown) stood at 72.9%. Moreover, the sub-G1 population in the data set with HT29 cells (HT29, knockdown of PUMA by siRNA) was determined as 11.1%. For the same compound, the sub-G1 population in the data set with HT29 cells (HT29, siControl) came out at 25.8%. For the same compound, in the data set on p53-target genes, the “expression of p53-target genes” value is “induced mutant p53 and ΔNp73 degradation and the expression of p53-target genes”.
